# Laboratory results published in paper PMC5118230, “Effects of acetaminophen on mitochondrial complex I activity in the rat liver and kidney: a PET study with ^18F-BCPP-BF” (EJNMMI Research, 2016).
# What was measured:
# MC-I [1] = molecular target: MC-I; set-up: method as in PMID 24285187, PMID 24470629; conditions: affinity to MC-I; cited from earlier work
# [2] = system: mitochondrial complex I (MC-I); assay: binding specificity of 18F-BCPP-BF to MC-I: pre-administration of rotenone, PET; format: in vivo, rat; conditions: rotenone 0.1 mg/kg/h i.v. infusion for 1 h before probe
# Procedure: (§1) Four animals per group were used for PET imaging.
# (§2) Rats anesthetized by 1.5–2.0% isoflurane in O2 were positioned prone on a fixation plate and placed in the gantry hole of the PET scanner (SHR-7700, Hamamatsu Photonics, Hamamatsu, Japan). After a transmission scan for 15 min using a ^68Ge-^68Ga rotation rod source, ^18F-BCPP-BF at ca. 15 MBq was intravenously injected into each rat via the tail vein, and this was followed by an emission scan with list mode data acquisition (every 1 ms) for 90 min. The body temperature of each animal was monitored to record throughout the study using a Thermo-Hygro Recorder (TR-72Ui, T&D Corporation, Matsumoto, Japan).
# (§3) The PET data obtained were reconstructed by Dynamic RAMLA (DRAMA) method with a Gauss filter of 1.0-mm FWHM and attenuation correction using the transmission scan data. Dynamic images every 2 min for the time activity curve (TAC) as well as summation images in the early (from 15 to 30 min after ^18F-BCPP-BF injection) and late (from 70 to 90 min) phases were reconstructed. Since there were no information on the TACs of ^18F-BCPP-BF in the liver and kidney, we conducted PET data acquisition up to 90 min after the injection.
# (§4) Standard uptake value (SUV) images were created as follows: SUV=CTWs/Dinj
# (§5) where C T is the tissue radioactivity (Bq/mL) obtained from PET images, W s is the body weight (g) of the rat being examined, and D inj is the injected dose (Bq) of ^18F-BCPP-BF. Each summation SUV image was superimposed on the corresponding X-CT images obtained using ClairvivoCT (Shimadzu Corporation, Kyoto, Japan). Volumes of interest (VOIs) were selected on summation images of the kidney (renal cortex and pelvis) and liver in the early (from 15 to 30 min) and late (from 70 to 90 min) phases and TACs were obtained from dynamic image data in each organ as SUV by setting the early phase VOIs.
# MC-I [3] = system: MC-I; set-up: method as in PMID 24470629; conditions: rotenone 0.1 mg/kg; cited from earlier work
# liver [4] = assay: biochemical parameters for hepatic function in serum after acetaminophen; format: in vivo, rat
# Procedure: (§6) In a separate study from PET measurements, physiological and biochemical assessments were conducted on four animals for each time and dosing condition. Body weight measurements, urine collection, and blood sampling were conducted 2, 6, and 24 h after the administration of acetaminophen. A rat was placed in a metabolic cage on a 12/12-h light/dark cycle, and urine samples were collected for 24 h and centrifuged to remove suspended material, and the supernatants were analyzed to measure total protein, creatinine, and N-acetyl-β-D-glucosaminidase (NAG) using a biochemical automatic analyzer (JCA-BM6010, JEOL Ltd., Tokyo, Japan). Blood sample was collected from the tail vein, and the serum fraction separated from the blood was used in assay of alanine aminotransferase (ALT), aspartate aminotransferase (AST), lactate dehydrogenase (LDH), bilirubin (BIL), and BUN using a biochemical automatic analyzer (JCA-BM6010, JEOL Ltd., Tokyo, Japan).
# [5] = system: mitochondrial complex I (MC-I); assay: effects of acetaminophen on MC-I activity (18F-BCPP-BF uptake, PET); format: in vivo, rat
# Procedure: In order to evaluate the acute effects of acetaminophen, vehicle or acetaminophen at a dose of 100 or 300 mg/kg in 10 mL/kg of vehicle (saline containing 20% Tween-80) was intraperitoneally administered 2 or 24 h before the PET probe injection.
# as §2, §3, §4, §5
# kidney = assay: biochemical parameters for renal function in urine and serum after acetaminophen; format: in vivo, rat
# Procedure: as §6
# liver [6] = system: liver; set-up: method as in PMID 26102222; conditions: acetaminophen 300 mg/kg, mice; cited from earlier work
# [7] = set-up: method as in PMID 24285187, PMID 24470629; conditions: pH 7.4; cited from earlier work
# [8] = system: mitochondrial complex I (MC-I); assay: PET kinetics and distribution of 18F-BCPP-BF in rat abdominal organs; format: in vivo
# Procedure: as §1, §2, §3, §4, §5
# [9] = system: mitochondrial complex I (MC-I); set-up: method as in PMID 24470629; conditions: with time, significant at the later phase of 60 min after injection; cited from earlier work
# [10] = 24 h after acetaminophen 300 mg/kg i.p., p < 0.001
# [11] = 24 h after acetaminophen 300 mg/kg i.p., p = 0.034
# [12] = 24 h after acetaminophen 300 mg/kg i.p., p = 0.027
# [13] = control rat, 15 to 30 min post-injection, i.v.
# [14] = control rat, 70 to 90 min post-injection, i.v.
smiles,measurement,setting,value
"CC(C)(C)n1ncc(OCc2ccc(OCCCCF)nc2)c(Cl)c1=O [^18F-BCPP-BF, 2-tert-butyl-4-chloro-5-[6-(4-^18F-fluorobutoxy)-pyridin-3-ylmethoxy]-2H-pyridazin-3-one]",Ki,MC-I [1],0.7 nM
C=C(C)[C@H]1Cc2c(ccc3c2O[C@@H]2COc4cc(OC)c(OC)cc4[C@@H]2C3=O)O1 [rotenone],18F-BCPP-BF uptake level in renal cortex vs. control,"[2]; averaged SUV 15 to 30 min, p = 0.027",64.2%
same,18F-BCPP-BF uptake level in liver vs. control,"[2]; averaged SUV 15 to 30 min, p = 0.038",76.9%
same,"inhibition degree of 18F-BCPP-BF uptake in renal cortex, of control","[2]; averaged SUV 70 to 90 min, p = 0.006",52.2%
same,inhibition of the binding of MC-I PET probes to MC-I in the heart and brain,MC-I [3],fully inhibited
"COCCOCCOc1ccc(COc2cnn(C(C)(C)C)c(=O)c2Cl)cn1 [^11C-BCPP-EM, 2-tert-butyl-4-chloro-5-{6-[2-(2-^11C-methoxy-ethoxy)-ethoxy]-pyridin-3-ylmethoxy}-2H-pyridazin-3-one]",Ki,MC-I [1],4.7 nM
"CC(C)(C)n1ncc(OCc2ccc(OCCOCCF)nc2)c(Cl)c1=O [^18F-BCPP-EF, 2-tert-butyl-4-chloro-5-{6-[2-(2-^18F-fluoroethoxy)-ethoxy]-pyridin-3-ylmethoxy}-2H-pyridazin-3-one]",Ki,MC-I [1],2.31 nM
CC(=O)Nc1ccc(O)cc1 [acetaminophen],AST vs. the corresponding 100 mg/kg,liver [4]; [10],383.0%
same,AST vs. the corresponding control,liver [4]; [10],322.3%
same,ALT vs. the corresponding control,"liver [4]; 24 h after acetaminophen 300 mg/kg i.p., p = 0.001",207.4%
same,BIL vs. the corresponding 100 mg/kg,liver [4]; [11],233.3%
same,BIL vs. the corresponding control,liver [4]; [11],186.2%
same,ALT level change,liver [4]; acetaminophen 100 mg/kg i.p.,did not show significant changes
same,AST level change,liver [4]; acetaminophen 100 mg/kg i.p.,did not show significant changes
same,BIL level change,liver [4]; acetaminophen 100 mg/kg i.p.,did not show significant changes
same,LDH change from the control condition,"liver [4]; acetaminophen 100 or 300 mg/kg i.p., 2, 6 and 24 h",did not show any significant alterations
same,18F-BCPP-BF uptake by the liver vs. control,"[5]; acetaminophen 100 mg/kg i.p., 2 h after, SUV 15 to 30 min, p = 0.017",72.1%
same,18F-BCPP-BF uptake in the renal cortex vs. control,"[5]; acetaminophen 100 mg/kg i.p., 24 h after, SUV 15 to 30 min, p = 0.038",83.4%
same,18F-BCPP-BF uptake by the liver vs. control,"[5]; acetaminophen 100 mg/kg i.p., 24 h after, SUV 15 to 30 min, p = 0.049",81.4%
same,18F-BCPP-BF uptake by the liver vs. control,"[5]; acetaminophen 300 mg/kg i.p., 2 h after, SUV 15 to 30 min, p = 0.003",53.9%
same,18F-BCPP-BF uptake in the renal cortex vs. control,"[5]; acetaminophen 300 mg/kg i.p., 2 h after, SUV 15 to 30 min, p = 0.025",72.1%
same,18F-BCPP-BF uptake in the renal pelvis vs. control,"[5]; acetaminophen 300 mg/kg i.p., 2 h after, SUV 15 to 30 min, p = 0.027",56.6%
same,18F-BCPP-BF uptake by the liver vs. control,"[5]; acetaminophen 300 mg/kg i.p., 24 h after, SUV 15 to 30 min, p = 0.002",80.5%
same,18F-BCPP-BF uptake in the renal cortex vs. control,"[5]; acetaminophen 300 mg/kg i.p., 24 h after, SUV 15 to 30 min, p = 0.009",79.5%
same,reduction of MC-I activity in the liver assessed using 18F-BCPP-BF,[5]; acetaminophen 300 mg/kg in rats,approximately 50%
same,18F-BCPP-BF uptake in the renal pelvis,"[5]; acetaminophen i.p., 24 h after, SUV 15 to 30 min",no significant reduction
same,urinary protein excretion vs. 100 mg/kg,"kidney; 6 h after acetaminophen 300 mg/kg i.p., p = 0.017",46.9%
same,urinary protein excretion vs. control,"kidney; 6 h after acetaminophen 300 mg/kg i.p., p = 0.028",56.4%
same,urinary protein excretion vs. 100 mg/kg,kidney; [12],143.0%
same,urinary protein excretion vs. control,kidney; [12],128.9%
same,BUN change,"kidney; serum, acetaminophen treatment, at any time",did not show any significant alterations
same,creatinine level vs. control,"kidney; urine, 6 h after acetaminophen 300 mg/kg i.p., p < 0.001",24.3%
same,creatinine level vs. 100 mg/kg,"kidney; urine, 6 h after acetaminophen 300 mg/kg i.p., p = 0.002",23.4%
same,NAG vs. control,"kidney; urine, 24 h after acetaminophen 300 mg/kg i.p., p = 0.011",161.8%
same,NAG vs. 100 mg/kg,"kidney; urine, 24 h after acetaminophen 300 mg/kg i.p., p = 0.027",164.8%
same,NAG change,"kidney; urine, acetaminophen 100 mg/kg i.p.",did not show any significant changes
same,reduction in 18F-2-DFR uptake by the liver,liver [6],approximately 20%
"CC(C)(C)n1ncc(OCc2ccc(OCCOCC[18F])nc2)c(Cl)c1=O [^18F-BCPP-EF, 2-tert-butyl-4-chloro-5-{6-[2-(2-^18F-fluoroethoxy)-ethoxy]-pyridin-3-ylmethoxy}-2H-pyridazin-3-one]",logD7.4,[7],3.03
"CC(C)(C)n1ncc(OCc2ccc(OCCCC[18F])nc2)c(Cl)c1=O [^18F-BCPP-BF, 2-tert-butyl-4-chloro-5-[6-(4-^18F-fluorobutoxy)-pyridin-3-ylmethoxy]-2H-pyridazin-3-one]","averaged SUV, liver",[8]; [13],4.40 ± 0.39
same,"averaged SUV, renal cortex",[8]; [13],8.12 ± 0.69
same,"averaged SUV, renal pelvis",[8]; [13],4.17 ± 0.51
same,"averaged SUV, bladder","[8]; control rat, 15 to 30 min post-injection, i.v., data not shown",0.88 ± 0.42
same,"averaged SUV, liver",[8]; [14],3.75 ± 0.38
same,"averaged SUV, renal cortex",[8]; [14],6.29 ± 0.30
same,"averaged SUV, renal pelvis",[8]; [14],4.37 ± 0.64
same,type of kinetics of the time activity curves,"[8]; rat renal cortex and liver, PET TACs",reversible-type kinetics
same,logD7.4,[7],4.27
same,accumulation of radioactivity in bone (defluorination),[9],slightly greater accumulation of radioactivity in bone with time
"CC(C)(C)n1ncc(OCc2ccc(OCCOCCO[11CH3])nc2)c(Cl)c1=O [^11C-BCPP-EM, 2-tert-butyl-4-chloro-5-{6-[2-(2-^11C-methoxy-ethoxy)-ethoxy]-pyridin-3-ylmethoxy}-2H-pyridazin-3-one]",logD7.4,[7],2.87
